The subject of one data set is RGC axons. Briefly: RGC axon regeneration after optic nerve crush (GAP-43 immunohistochemistry of optic nerve). The class given is in vivo, rat. Conditions: 21 days after ONC; for number of GAP-43+ axons distal from the lesion site: daily eye drops 1.88 nM; for number of GAP-43+ axons in distal optic nerve stump: weekly intravitreal 1.88 nM. The method, then:
In a separate set of experiments comprising the same treatment groups, 6 rats/treatment (i.e. 12 eyes/optic nerves/treatment) were used to evaluate RGC axon regeneration by immunostaining with growth-associated protein-43 (GAP-43) in the optic nerve.
In further experiments, 12 rats (24 eyes/optic nerves)/treatment received 1.88 nM PEDF-34 eye drops daily. Six rats (12 eyes)/treatment were used to assess RGC survival at 21 days using FG backfilling, whilst the remaining 6 rats (12 eyes/optic nerves)/treatment were used to evaluate RGC axon regeneration at 21 days by GAP-43 immunohistochemistry.
All animal procedures were licenced and approved by the United Kingdom Home Office and the University of Birmingham ethical review committee and conformed to the Federation of European Laboratory Animal Associations (FELASA) guidelines. Optic nerves were exposed surgically in anaesthetised adult female Sprague–Dawley rats (170–220 g) through a supraorbital approach and crushed bilaterally using calibrated watchmakers forceps, 2 mm from the lamina cribrosa as described by us previously ([Vigneswara et al., 2013, 2014]).
Either PBS, or 0.268, 0.67, 1.34, 1.88, or 2.68 nM PEDF dissolved in 5 μl of sterile PBS was injected intravitreally immediately after ONC (0 days) and repeated at 7 and 14 days after ONC with the same doses of PEDF. […] Animals survived for 19 days before FG back-labelling and killing by rising CO2 levels 2 days later, and eyes/optic nerves harvested for retinal FG wholemounts.
Animals were killed with an overdose of CO2 and intracardially perfused with 4% formaldehyde, eyes and optic nerves were immersion fixed in 4% formaldehyde for a further 2 h before cryoprotection in a graded series of sucrose. Eyes and optic nerves were embedded in optimal cutting temperature (OCT) compound (Raymond A. Lamb, Eastbourne, UK) and stored at − 80 °C. Subsequently, 15 μm-thick parasagittal eye or longitudinal optic nerve sections were cut using a cryostat (Brights Instruments, Huntingdon, UK), adhered onto glass slides and stored at − 20 °C until required.
Immunohistochemistry was performed as described by us previously ([Vigneswara et al., 2013, 2014]). Briefly, sections were thawed, washed at RT in PBS and permeabilised. Non-specific binding sites were blocked in 3% bovine serum albumin (BSA) containing 0.1% Triton X-100 and then sections were incubated in primary antibody diluted in PBS containing 3% BSA and 0.05% Tween-20, overnight at 4 °C (16–18 h). Monoclonal anti-GAP-43 antibody (1:500 dilution; Invitrogen) stained regenerating axons in optic nerve sections (Table 1). […] Sections were then washed in PBS and incubated with either Alexa Fluor 488 or Texas Red-labelled secondary antibodies (1:400 dilution; Invitrogen) for 1 h at RT, washed in PBS, mounted in Vectamount containing DAPI (Vector Laboratories) and examined with a Zeiss Axioplan 2 fluorescent microscope, equipped with an AxioCam HRc camera and Axiovision software. The negative control sections were used to set the background threshold levels of fluorescence before image capture.
Regenerating axons in the optic nerve were quantified using previously published methods ([Leon et al., 2000; Lorber et al., 2009; Vigneswara et al., 2013, 2014]). […] Briefly, an observer blinded to the identity of the slides […] through each nerve (n = 6 rats/12 optic nerves/treatment).

The conditions of data set [1]: single eye drop, ELISA.
Data set [2] deals with embryonic rat spinal motor neurons. The note with it: ref Bilak et al., 2002; cited from earlier work. From the text: Axotomised RGCs are not viable unless treated with neurotrophic factors such as brain-derived neurotrophic factor, ciliary neurotrophic factor and glial cell line-derived factor ([Ahmed et al., 2006b; Benowitz and Yin, 2007; Watanabe et al., 2003; Yip and So, 2000]). Recently, we confirmed that, after optic nerve crush (ONC), PEDF is RGC neuroprotective and axogenic ([Vigneswara et al., 2013]), whilst other neuroprotective and anti-angiogenic N-terminal fragments of the native peptide exist ([Bilak et al., 2002; Gvritishvili et al., 2010; Li et al., 2006; Mirochnik et al., 2009]) including the ...

A short description of data set [3]: Stability in culture media and on long-term storage. The note with it: no data shown.

Read-outs that look alike come from different tables or passages of the source. No end group written: not given here.

The sequence “DPFFKVPVNKLAAAVSNFGYDLYRVRSSTSPTTN [PEDF-34]” had a time to detection in vitreous body of under 30 min. Besides, in the data set on RGC axons (200 μm distal, n = 6 rats/12 optic nerves), the “number of GAP-43+ axons distal from the lesion site” value (“number of GAP-43+ axons distal” below) is 4049 ± 355 axons. Also, in the data set with RGC axons (500 μm distal), the “number of GAP-43+ axons distal” value came to 2893 ± 315 axons. The “number of GAP-43+ axons distal” value with RGC axons (1000 μm distal) is recorded as 2043 ± 120 axons. Further, the “number of GAP-43+ axons distal” value with RGC axons (1500 μm distal) is listed as 1285 ± 126 axons. For the same sequence, the “number of GAP-43+ axons distal” value with RGC axons (2000 μm distal) is 884 ± 139 axons. In the data set on RGC axons (2500 μm distal), the “number of GAP-43+ axons distal” value was 582 ± 155 axons. Also, in the data set with RGC axons (200 μm from the lesion site, n = 6 rats/12 optic nerves), the “number of GAP-43+ axons in distal optic nerve stump” value came to 2038 ± 234 axons. Besides, in the data set with RGC axons (500 μm from the lesion site), the “number of GAP-43+ axons in distal optic nerve stump” value was determined as 1733 ± 237 axons. Moreover, in the data set on RGC axons (1000 μm from the lesion site), the “number of GAP-43+ axons in distal optic nerve stump” value is listed as 1462 ± 175 axons. Also, in the data set with RGC axons (1500 μm from the lesion site), the “number of GAP-43+ axons in distal optic nerve stump” value turned out to be 945 ± 100 axons. In addition, the “number of GAP-43+ axons in distal optic nerve stump” value with RGC axons (2000 μm from the lesion site) was 79 ± 44 axons. The “level of total PEDF in the retina” value in data set [1] (1.88 nM dose (peak), 0.5 h) is reported as 0.18 ± 0.007 nM. Besides, the “level of total PEDF in the vitreous” value in data set [1] (1.88 nM dose (peak), 0.5 h, 6 animals (12 eyes)) was 0.42 ± 0.01 nM. Further, in data set [1] (4 h), the “peak level of total PEDF in the retina” value stood at 0.24 ± 0.005 nM and the “peak level of total PEDF in the vitreous” value turned out to be 0.39 ± 0.004 nM. Moreover, in data set [1] (24 h), the “peak level of total PEDF in the retina” value amounted to 0.12 ± 0.002 nM and the “peak level of total PEDF in the vitreous” value came to 0.21 ± 0.004 nM. Besides, the “neuroprotection of embryonic rat spinal motor neurons” value in data set [2] is “not neuroprotective”. In data set [3] (PEDF-34 compared with PEDF-44), the “stability in culture media” value is “equally stable”. In addition, in data set [3], the “neurotrophic properties after long-term storage” value is “retained their neurotrophic properties”.

Source of the values: publication PMC4604765, “Eye drop delivery of pigment epithelium-derived factor-34 promotes retinal ganglion cell neuroprotection and axon regeneration” (Molecular and Cellular Neurosciences, 2015).
